According to publication PMC10331583, “Control of fibrosis with enhanced safety via asymmetric inhibition of prolyl‐tRNA synthetase 1” (EMBO Molecular Medicine, 2023):
Values joined by “and” are separate entries in the source; they are usually repeats but may differ in a detail not shown here. Equal values may be shown once. Read-outs that look alike come from different tables or passages of the source.

Experiments:
WI‐26 VA4 cells [1] = assay: Collagen ELISA (secreted pro‐collagen I)
Experimental: WI‐26 VA4 cells were seeded at 3.5 × 10^4 cells/well on 24 well plates. After 24 h, the cells were starved of serum for 6 h. Then, the cells were incubated with the indicated concentrations of compounds in the presence of TGF‐β (2 ng/ml) (R&D systems, 240‐B‐002) for 72 h. The supernatant of the cells was collected and centrifuged at 500 g for 5 min to remove cell debris. Then, the level of pro‐collagen I in the supernatant was determined using Human Pro‐collagen I alpha 1 DuoSet ELISA (R&D systems, DY6220‐05) and DuoSet ELISA Ancillary Reagent Kit 2 (R&D systems, DY008) following the manufacturer's instructions.

WI‐26 VA4 cells [2] = assay: Puromycin incorporation assay; assay type: cell-based, human; conditions: for activity at 0.01 µM: WI26VA4, 10 nM; for activity at 0.03 µM: WI26VA4, 30 nM; for activity at 3 µM: WI26VA4, 3000 nM; for activity at 10 µM: WI26VA4, 10000 nM
Experimental: After being rinsed with cold PBS twice, the cells were collected and resuspended in 200 μl of the carbonate bicarbonate buffer (Sigma Aldrich, C3041‐50CAP) with protease inhibitor. The cell lysates were obtained by sonication and centrifugation at 20,000 g for 15 min at 4°C. After protein quantification using a Pierce™ BCA Protein Assay Kit (Thermo Fisher Scientific, 23225), 400 ng of the proteins was coated to ELISA plates for 18 h at 4°C. […] The plates were rinsed with the washing buffer for three times after each antibody incubation step. […] The amount of puromycin incorporated in proteins was determined by measuring the absorbance at 450 nm (reference wavelength at 620 nm). Experimental values marked in red with strikethrough text in the Figure Source Data file were excluded from the analysis. These values were determined by considering the values of biological and technical replicates under the same condition, as well as the values at the former and later chemical concentrations.

[3] = system: TNT Quick Coupled Transcription/Translation System (luciferase synthesis); assay type: biochemical
[4] = log(inhibitor) vs. response, variable slope (four parameters)
[5] = log(inhibitor) vs. response, variable slope (four parameters), concentration in nM
[6] = Homo sapiens, read-out: Puromycin, % of control, average
[7] = Homo sapiens, read-out: Puromycin, % of control, single replicate

Question: Which “Collagen, % of control (single replicates per experiment)” value (WI‐26 VA4 cells [1]; 10 nM, 0.01 µM) does the source give for `O=C(C[C@H]1NCCC[C@@H]1O)Cn1cnc2ccc(-c3cccc(F)c3)cc21` [DWN11251] here?
Answer: 112.57 % of control and 103.72 % of control and 109.80 % of control and 111.67 % of control and 110.64 % of control

Question: What about the “Collagen, % of control (single replicates per experiment)” value (WI‐26 VA4 cells [1]; 100 nM, 0.1 µM) of the same compound?
Answer: 84.02 % of control and 93.58 % of control and 96.09 % of control and 96.94 % of control and 92.86 % of control

Question: What about the “Collagen, % of control (single replicates per experiment)” value (WI‐26 VA4 cells [1]; 300 nM, 0.3 µM) of the same compound?
Answer: 47.78 % of control and 47.63 % of control and 53.20 % of control and 53.43 % of control and 55.58 % of control

Question: What about the “Collagen, % of control (single replicates per experiment)” value (WI‐26 VA4 cells [1]; 1000 nM, 1 µM) of the same compound?
Answer: 11.57 % of control and 11.31 % of control and 12.08 % of control and 14.51 % of control and 14.77 % of control

Question: What about the “Collagen, % of control (single replicates per experiment)” value (WI‐26 VA4 cells [1]; 3000 nM, 3 µM) of the same compound?
Answer: 3.47 % of control and 2.67 % of control and 3.07 % of control and 3.55 % of control and 4.03 % of control

Question: And the “Collagen, % of control (single replicates per experiment)” value (WI‐26 VA4 cells [1]; 10000 nM, 10 µM)?
Answer: 2.75 % of control and 2.12 % of control and 2.44 % of control and 2.49 % of control and 2.64 % of control

Question: And the “Collagen, % of control (single replicates per experiment)” value (WI‐26 VA4 cells [1]; 30000 nM, 30 µM)?
Answer: 3.52 % of control

Question: What about the “CC50/collagen IC50” value (WI‐26 VA4 cells [1]; Fig 5E) of the same compound?
Answer: 7.08

Question: And the IC50 (WI‐26 VA4 cells [1]; Homo sapiens, WI26VA4, read-out: Collagen IC50 (best-fit value), log(inhibitor) vs. response, variable slope (four parameters) (converted))?
Answer: 0.257 µM

Question: And the activity at 0.01 µM (WI‐26 VA4 cells [1]; Homo sapiens, WI26VA4, read-out: Collagen, % of control (single replicates per experiment), 10 nM)?
Answer: 112%

Question: What about the activity at 0.03 µM (WI‐26 VA4 cells [1]; Homo sapiens, WI26VA4, read-out: Collagen, % of control (single replicates per experiment), 30 nM) of the same compound?
Answer: 109%

Question: And the activity at 0.1 µM (WI‐26 VA4 cells [1]; Homo sapiens, WI26VA4, read-out: Collagen, % of control (single replicates per experiment), 100 nM)?
Answer: 81.3%

Question: What about the activity at 0.3 µM (WI‐26 VA4 cells [1]; Homo sapiens, WI26VA4, read-out: Collagen, % of control (single replicates per experiment), 300 nM) of the same compound?
Answer: 42.9%

Question: And the activity at 1 µM (WI‐26 VA4 cells [1]; Homo sapiens, WI26VA4, read-out: Collagen, % of control (single replicates per experiment), 1000 nM)?
Answer: 10.2%

Question: What about the activity at 3 µM (WI‐26 VA4 cells [1]; Homo sapiens, WI26VA4, read-out: Collagen, % of control (single replicates per experiment), 3000 nM) of the same compound?
Answer: 2.81%

Question: And the activity at 10 µM (WI‐26 VA4 cells [1]; Homo sapiens, WI26VA4, read-out: Collagen, % of control (single replicates per experiment), 10000 nM)?
Answer: 2.31%

Question: What about the activity at 30 µM (WI‐26 VA4 cells [1]; Homo sapiens, WI26VA4, read-out: Collagen, % of control (single replicates per experiment), 30000 nM) of the same compound?
Answer: 2.54%

Question: What about the activity at 0.01 µM (WI‐26 VA4 cells [1]; Homo sapiens, WI26VA4, read-out: Collagen, % of control, average, 10 nM, average) of the same compound?
Answer: 110%

Question: And the activity at 0.03 µM (WI‐26 VA4 cells [1]; Homo sapiens, WI26VA4, read-out: Collagen, % of control, average, 30 nM, average)?
Answer: 108%

Question: What about the activity at 0.1 µM (WI‐26 VA4 cells [1]; Homo sapiens, WI26VA4, read-out: Collagen, % of control, average, 100 nM, average) of the same compound?
Answer: 90.8%

Question: What about the activity at 0.3 µM (WI‐26 VA4 cells [1]; Homo sapiens, WI26VA4, read-out: Collagen, % of control, average, 300 nM, average) of the same compound?
Answer: 50.1%

Question: What about the activity at 1 µM (WI‐26 VA4 cells [1]; Homo sapiens, WI26VA4, read-out: Collagen, % of control, average, 1000 nM, average) of the same compound?
Answer: 12.4%

Question: And the activity at 3 µM (WI‐26 VA4 cells [1]; Homo sapiens, WI26VA4, read-out: Collagen, % of control, average, 3000 nM, average)?
Answer: 3.27%

Question: What about the activity at 10 µM (WI‐26 VA4 cells [1]; Homo sapiens, WI26VA4, read-out: Collagen, % of control, average, 10000 nM, average) of the same compound?
Answer: 2.46%

Question: What about the activity at 30 µM (WI‐26 VA4 cells [1]; Homo sapiens, WI26VA4, read-out: Collagen, % of control, average, 30000 nM, average) of the same compound?
Answer: 2.88%

Question: And the “Collagen HillSlope (best-fit value)” value (WI‐26 VA4 cells [1]; [4])?
Answer: -1.623

Question: And the “Collagen LogIC50 (best-fit value)” value (WI‐26 VA4 cells [1]; [5])?
Answer: 2.409

Question: What about the “Relative (CC50)/(collagen IC50)” value (WI‐26 VA4 cells [1]; relative to HF, Fig 5E) of the same compound?
Answer: 2.11

Question: And the “Puromycin, % of control, single replicate” value (shortened to “Puromycin, % of control”) (WI‐26 VA4 cells [2]; 10 nM, 0.01 µM)?
Answer: 101.25 % of control and 94.41 % of control and 100.93 % of control and 102.37 % of control and 93.16 % of control and 112.99 % of control and 111.09 % of control and 112.68 % of control

Question: What about the “Puromycin, % of control” value (WI‐26 VA4 cells [2]; 30 nM, 0.03 µM) of the same compound?
Answer: 103.89 % of control and 102.07 % of control and 109.54 % of control and 108.35 % of control and 99.59 % of control and 116.49 % of control and 113.07 % of control and 114.50 % of control

Question: And the “Puromycin, % of control” value (WI‐26 VA4 cells [2]; 100 nM, 0.1 µM)?
Answer: 103.01 % of control and 100.87 % of control and 101.28 % of control and 109.49 % of control and 107.49 % of control and 101.40 % of control and 114.53 % of control and 111.00 % of control and 121.31 % of control

Question: What about the “Puromycin, % of control” value (WI‐26 VA4 cells [2]; 300 nM, 0.3 µM) of the same compound?
Answer: 88.40 % of control and 85.23 % of control and 87.58 % of control and 94.28 % of control and 93.99 % of control and 87.62 % of control and 94.72 % of control and 94.55 % of control and 109.57 % of control

Question: And the “Puromycin, % of control” value (WI‐26 VA4 cells [2]; 1000 nM, 1 µM)?
Answer: 106.50 % of control and 101.49 % of control and 107.47 % of control and 104.76 % of control and 102.45 % of control and 95.18 % of control and 122.63 % of control and 109.16 % of control and 107.56 % of control

Question: What about the “Puromycin, % of control” value (WI‐26 VA4 cells [2]; 3000 nM, 3 µM) of the same compound?
Answer: 61.69 % of control and 62.47 % of control and 62.84 % of control and 57.24 % of control

Question: What about the “Puromycin, % of control” value (WI‐26 VA4 cells [2]; 10000 nM, 10 µM) of the same compound?
Answer: 19.53 % of control and 20.29 % of control and 21.78 % of control and 23.63 % of control and 20.64 % of control and 21.23 % of control and 21.73 % of control and 22.58 % of control

Question: What about the “Puromycin, % of control” value (WI‐26 VA4 cells [2]; 30000 nM, 30 µM) of the same compound?
Answer: 0.45 % of control and 0.66 % of control and 0.0147 % of control and 1.69 % of control and 1.62 % of control and 0.33 % of control and 0.81 % of control and 1.20 % of control and -0.12 % of control

Question: What about the activity at 0.01 µM (WI‐26 VA4 cells [2]; [6]) of the same compound?
Answer: 103%

Question: What about the activity at 0.01 µM (WI‐26 VA4 cells [2]; [7]) of the same compound?
Answer: 99.1%

Question: What about the activity at 0.03 µM (WI‐26 VA4 cells [2]; [6]) of the same compound?
Answer: 108%

Question: What about the activity at 0.03 µM (WI‐26 VA4 cells [2]; [7]) of the same compound?
Answer: 108%

Question: What about the activity at 0.1 µM (WI‐26 VA4 cells [2]; Homo sapiens, WI26VA4, 100 nM, read-out: Puromycin, % of control, average) of the same compound?
Answer: 108%

Question: What about the activity at 0.3 µM (WI‐26 VA4 cells [2]; Homo sapiens, WI26VA4, 300 nM, read-out: Puromycin, % of control, average) of the same compound?
Answer: 92.9%

Question: What about the activity at 1 µM (WI‐26 VA4 cells [2]; Homo sapiens, WI26VA4, 1000 nM, read-out: Puromycin, % of control, average) of the same compound?
Answer: 106%

Question: And the activity at 3 µM (WI‐26 VA4 cells [2]; [6])?
Answer: 60.8%

Question: And the activity at 3 µM (WI‐26 VA4 cells [2]; [7])?
Answer: 59.6%

Question: And the activity at 10 µM (WI‐26 VA4 cells [2]; [6])?
Answer: 21.3%

Question: What about the activity at 10 µM (WI‐26 VA4 cells [2]; [7]) of the same compound?
Answer: 20.3%

Question: What about the activity at 30 µM (WI‐26 VA4 cells [2]; Homo sapiens, WI26VA4, 30000 nM, read-out: Puromycin, % of control, average) of the same compound?
Answer: 0.74%

Question: What about the IC50 (WI‐26 VA4 cells [2]; Homo sapiens, WI26VA4, log(inhibitor) vs. response, variable slope (four parameters), read-out: Puromycin, IC50 (best-fit value)) of the same compound?
Answer: 4.24 µM

Question: What about the “Puromycin, HillSlope (best-fit value)” value (WI‐26 VA4 cells [2]; [4]) of the same compound?
Answer: -1.784

Question: And the “Puromycin, LogIC50 (best-fit value)” value (WI‐26 VA4 cells [2]; [5])?
Answer: 3.627

Question: And the “TNT-luciferase % of control” value ([3]; 60 nM, Experiment #1, replicates, 0.06 µM)?
Answer: 107.20 % of control and 104.88 % of control and 105.66 % of control

Question: And the “TNT-luciferase % of control” value ([3]; 60 nM, Experiment #2, replicates, 0.06 µM)?
Answer: 114.45 % of control and 123.12 % of control and 122.25 % of control

Question: And the “TNT-luciferase % of control, average” value ([3]; 60 nM)?
Answer: 112.93 % of control

Question: What about the “TNT-luciferase % of control” value ([3]; 200 nM, Experiment #1, replicates, 0.2 µM) of the same compound?
Answer: 108.74 % of control and 107.20 % of control and 111.83 % of control

Question: And the “TNT-luciferase % of control” value ([3]; 200 nM, Experiment #2, replicates, 0.2 µM)?
Answer: 104.91 % of control and 109.25 % of control and 124.86 % of control

Question: What about the “TNT-luciferase % of control, average” value ([3]; 200 nM) of the same compound?
Answer: 111.13 % of control

Question: And the “TNT-luciferase % of control” value ([3]; 600 nM, Experiment #1, replicates, 0.6 µM)?
Answer: 114.14 % of control and 111.05 % of control and 117.22 % of control

Question: And the “TNT-luciferase % of control” value ([3]; 600 nM, Experiment #2, replicates, 0.6 µM)?
Answer: 98.84 % of control (2×) and 100.58 % of control
